Here are results for 1 compound from patent publication US6852710B2, “2-alkoxyestradiol analogs with antiproliferative and antimitotic activity” (Southwest Foundation for Biomedical Research, priority 2001, dated 2005).

For one experiment, the system named is HeLa cells. Description: SRB assay, inhibition of proliferation. Type of experiment: cell-based. The note with it: Homo sapiens, 48 hours, n=3 mean±SD. As for the experimental part:
(§1) The 4 analogs of 2-ME2 set forth in Table 1 were tested for antiproliferative activity against 6 human tumor cell lines. The SK-OV-3 cell line was derived from ovarian carcinoma, the MDA-MB-435 and NCI/ADR from breast adenocarcinoma, PC3 and DU 145 from prostate carcinoma and HeLa from cervical carcinoma. The SK-OV-3, HeLa, PC3, and DU 145 and cell lines were obtained from the American Type Culture Collection, 10801 University Blvd., Manassas, Va. 20110-2209. The MDA-MB-435 cell line was obtained from the Lombardi Cancer Center of Georgetown University School of Medicine and the NCI/ADR cell line was obtained from the National Cancer Institute, Fairview Center, Suite 204, 1003 West 7th Street, Frederick, Md. 21701-8531.
(§2) Cells were plated into 96 well plates and allowed to grow and attach for 18-24 hours and then the drugs or vehicle controls were added to the wells. Each data point represents the mean of three experiments, each of which consisted of three replicates within an experiment. The cells were incubated with the drugs for 48 hours and then the cellular protein was fixed and quantified using the sulforhodamine B (SRB) assay. The absorbance of the dye is linear with respect to both cell protein and cell number (Skehan, P.; Storeng, R.; Scudiero, D., Monks; A., McMahon, J.; Vistica, D., Warren, J. T.; Bokesch, H., Kenney, S.; and Boyd, M. R., “New colorimetric cytotoxicity assay for anticancer-drug screening”, J. Natl. Cancer Inst, 82, 1107-1112 (1990)). The effects of the drugs were compared to vehicle controls and the data plotted as percent of control vs. log of drug concentration.
(§3) The IC50 is defined as the drug concentration required to inhibit cell proliferation 50% and is calculated from the linear portion of the log concentration response curve.
(§4) The IC50 values for inhibition of proliferation were calculated from the log dose response curve (n=3, mean±SD).

For the next experiment, the system named is SK-OV-3 cells. Kind of experiment: SRB assay, inhibition of proliferation. The note with it: Homo sapiens; SK-OV-3, 48 hours, n=3 mean±SD. Type of experiment: cell-based. As for the experimental part: as §1, §2, §3, §4
A further experiment concerns PC3 cells. Kind of experiment: SRB assay, inhibition of proliferation. Type of experiment: cell-based. The following applies: Homo sapiens, PC-3; PC3, 48 hours, n=3 mean±SD. As for the experimental part: as §1, §2, §3, §4
Experiment [1] concerns Human Umbilical Vein Endothelial Cells (HUVEC). Description: HUVEC proliferation (SRB assay). Type of experiment: cell-based. The source says:
FIG. 2 illustrates the effects of compounds on Human Umbilical Vein Endothelial Cells (HUVEC) proliferation. The SRB assay was used to construct the dose response curves of the agents in HUVEC cells. n=3±SD;
Two in vitro assays were used to detect the potential for antiangiogenic activity of the analogs. One assay tested the ability of the analogs to inhibit the cellular proliferation of endothelial cells as shown below (Table 4). The ability of the analogs to inhibit the proliferation of endothelial cells was tested and compared to the effects of 2-ME2. Drugs that have antiangiogenic activity inhibit the proliferation of endothelial cells.

For another experiment, the system named is NCI/ADR cells. Kind of experiment: SRB assay, inhibition of proliferation, multidrug resistant line. Type of experiment: cell-based, human.
Description: as §1, with “The” for “The 4 analogs of 2-ME2 set forth in Table 1 were tested for antiproliferative activity against 6 human tumor cell lines. The”
as §2, §3, §4
The effects of the analogs on a multi-drug resistant cell line were also studied. The NCI/ADR cell line is resistant to many chemotherapeutic agents by virtue of its high expression of the drug efflux pump P-glycoprotein. The NCI/ADR cell line was obtained from the National Cancer Institute, Fairview Center, Suite 204, 1003 West 7th Street, Frederick, Md. 21701-8531.
The IC50 values for inhibition of proliferation were calculated from the dose-response curves. The values represent the mean of 3 experiments ±SD. Resistance factors were calculated by dividing the IC50 of the resistant cell line, NCI/ADR, by the IC50 in a drug sensitive cell line, MDA-MB-435.

In a further experiment the test system is 6 human tumor cell lines. Description: SRB antiproliferative assay, panel of tumor cell lines. Type of experiment: cell-based. The note with it: in words; 15-dehydro-2-ME2: MDA-MB-435, NCI/ADR, PC3, HeLa and SK-OV-3. As for the experimental part: as §1, §2, §3
Experiment [2] has as its system Human Umbilical Vein Endothelial Cells (HUVEC). Description: HUVEC invasion, Matrigel invasion chambers. Type of experiment: cell-based. The text has this:
FIG. 3 illustrates the effects of compounds on Human Umbilical Vein Endothelial Cells (HUVEC) cell invasion. Becton-Dickinson (BD) Biocoat® Matrigel® invasion chambers were used to construct dose response curves of the compounds for invasion of HUVECs. n=3±SD;
A second assay was also used to evaluate the analogs for potential antiangiogenic activity. The complex process of endothelial cell invasion and migration are key events during angiogenesis. The ability of compounds to inhibit the invasion and migration of endothelial cells through a biological membrane matrix was evaluated. Specifically, the ability of the 2-ME2 analogs, 15-dehydro-2-ME2, 14-dehydro-2-ME2 and 2-ME2-15α,16α to inhibit the invasion and migration of human umbilical vein endothelial cells (HUVEC) through Matrigel® basement membrane material and a PET membrane with 8 μm pores was evaluated. HUVECs were obtained from BioWhittaker and were used during passages of 2 to 6. BD Biocoat® Matrigel® invasion chambers were used for the assays. These modified Boyden chambers have a PET membrane with 8 μm pores that have been coated with Matrigel®. The membrane separates the upper chamber from the lower chamber. HUVECs were plated into the top chamber in media containing 0.1% bovine serum albumin with either a test compound or vehicle and allowed to invade and migrate through pores for 24 hours. The media in the lower chamber contained the chemoattractant, 10% fetal bovine, serum. Following the incubation period the cells on the top of the membrane were removed with a cotton swab and the cells that had migrated through the pores to the lower surface of the membrane were stained with hematoxylin and eosin and counted microscopically. Experiments were conducted in duplicate and the numbers of cells that migrated were counted in 10 microscope fields per transwell chamber. The data are expressed as percent of vehicle control invasion. Dose response curves were generated and are shown in FIG. 3 and the IC50s for inhibition of HUVEC invasion were determined and are presented above in Table 4. All of the 2-ME2 analogs inhibited HUVEC invasion.

The test system of a further experiment is MDA-MB-435 cells. Kind of experiment: SRB assay, inhibition of proliferation. Type of experiment: cell-based, human. The following applies: Homo sapiens; MDA-MB-435, 48 hours, n=3 mean±SD. As for the experimental part: as §1, §2, §3, §4
The next experiment has as its system DU 145 cells. Description: SRB assay, inhibition of proliferation. Type of experiment: cell-based, human. As for the experimental part:
as §1, §2, §3, §4

In experiment [3] the test system is MDA-MB-435 breast cancer xenograft. Kind of experiment: MDA-MB-435 breast cancer xenograft model. Type of experiment: in vivo, mice. As for the experimental part: FIG. 4 illustrates the effects of compounds in an MDA-MB-435 breast cancer xenograft model. The data are the means of the groups ±SEM. Statistical significance (P<0.05) is indicated by an asterisk;
The analogs were tested for antitumor activity using an MDA-MB-435 breast cancer xenograft model. Tumor fragments of MDA-MB-435 (30 mg) were implanted subcutaneously into female athymic NCr-nu mice (SWF-1) weighing approximately 24 g. The tumor fragments were harvested from nude mice hosts. Animal weight and tumor dimensions were measured twice weekly with calipers and tumor weights estimated using 2-dimensional measurements of length and width and the formula [1×(w)^2]/2. When the tumors reached an approximate size equivalent to 175 mg (13 days after implantation) the mice were randomized to treatment or control groups and treatments were begun. The compounds were administered intraperitoneally daily for 30 days on the basis of individual animal body weights. Treatment groups contained 10 mice and the vehicle treated control group consisted of 20 mice. The mean tumor burdens were plotted for each treatment group and compared to controls. The means of the tumor burden data were analyzed for differences using a one-sided Student's t-test, with a P<0.05 considered to be significant difference. Tumor growth delay, the difference between the time for the median of each group (treatment and control) to reach a tumor burden of 1500 mg was calculated.

Take `COc1cc2c(cc1O)CC[C@@H]1[C@@H]2CC[C@]2(C)[C@@H](O)C=C[C@@H]12` [15-dehydro-2-ME2, 2-Methoxyestra-1,3,5(10), 15-tetraen-3,17β-diol]: the IC50 in the experiment on HeLa cells came to 0.43 ± 0.08 µM; in the experiment with SK-OV-3 cells, 1.37 ± 0.26 µM; in the experiment with PC3 cells, 1.82 ± 0.98 µM; in experiment [1] (Homo sapiens, HUVEC, SRB assay), 0.72 ± 0.02 µM; with NCI/ADR cells (Homo sapiens, NCI/ADR-RES, NCI/ADR multidrug resistant, 48 hours, n=3 mean±SD), 0.49 ± 0.06 µM; in experiment [2] (Homo sapiens, HUVEC, Matrigel, 24 hours), 2.07 ± 0.08 µM. For the same compound, the IC50 in the experiment with MDA-MB-435 cells was determined as 0.86 ± 0.11 µM; in the experiment with DU 145 cells (Homo sapiens, DU 145, 48 hours, n=3 mean±SD), 1.25 ± 0.32 µM. The “potency relative to 2-ME2, HUVEC proliferation” value in experiment [1] (HUVEC proliferation, in words) is reported as “equipotent with the parental compound”. Also, in the experiment on NCI/ADR cells (IC50 in NCI/ADR divided by IC50 in MDA-MB-435), the NCI-ADR/MDA-MB-435 resistance factor came out at 0.57. The “potency compared with 2-ME2, tumor cell lines” value with 6 human tumor cell lines is recorded as “approximately equal in potency to 2-ME2”. Also, the “potency relative to 2-ME2 in inhibiting HUVEC invasion” value in experiment [2] (HUVEC invasion) is reported as “equipotent with 2-ME2”. The “potency relative to 2-ME2” value in the experiment on DU 145 cells (DU 145 cell line) is on record as “over three times more potent”. Besides, the tumor growth delay in experiment [3] (intraperitoneally daily for 30 days, time for median to reach tumor burden of 1500 mg vs control) amounted to 7.5 days. The “days with statistically significant differences between control and treated tumors” value in experiment [3] (one-sided Student's t-test, P<0.05) is “days 16-26 and day 36”. The “antitumor effect compared with 2-ME2” value in experiment [3] (tumor burden versus time) is reported as “superior to 2-ME2”.
